The text below walks through data of patent publication US12331136B2, “Anti-aging sturgeon roe tetrapeptide and preparation method and application thereof” (Shenzhen Porshealth Bioengineering Co., Ltd., priority 2023, dated 2025).

Residues, ends and D or L forms follow the SMILES beside them.

The nature of the series: Absorption experiment of NLPL in rats (blood LC-MS/MS). It counts as in vivo. As to conditions: SD rats, intragastric 50 mg/kg bw. Here is the method: In this research, SD rats are used and divided into three groups: a normal group and sturgeon NLPL (SEQ ID NO: 9) groups (50 mg/kg bw of daily dosage). At 12 h before the experiment, the rats are fasted but allowed to drink water. At 15 min, 45 min, 90 min, 180 min and 360 min after intragastric administration, all rats are anesthetized with 3% pentobarbital sodium, subjected to blood sampling through the abdominal aorta, and then euthanized. The polypeptide samples are prepared by solid phase synthesis and desalted.
• (1) The required samples are taken out, thawed, and mixed uniformly by vortex. • (2) 40 μL of sample is taken from the mixed sample, added with 120 μL of methanol, then shaken for 10 min, and centrifuged at low temperature for 10 min. • (3) 70 μL of supernatant is taken out from the centrifuged sample for subsequent determination. 4.2.2.2 Preparation of Standard Solution
Chromatographic separation is performed by using Waters ACQUITY UPLC I-CLASS ultra-high performance liquid chromatography equipment. Specific conditions are as follows: chromatographic column: Waters UPLC HSS T3 (1.8 μm, 2.1 mm×100 mm)—mobile phase: phase A (water, 0.1% formic acid), phase B (methanol)—flow rate: 0.3 mL/min-injection volume: 5.0 μL-column temperature: 40° C.—single sample analysis time: 8 min.
Mass spectrometric detection is performed by using Waters XEVO TQ-XS series four-pole mass spectrometer. Specific conditions are as follows: positive ion source voltage: 3.0 kV-cone well voltage: 30 V-solvent removal temperature: 500° C.—solvent removal gas flow rate: 1000 L/h-cone well gas flow rate: 150 L/h.
Data are expressed in the form of Mean±SD. Data processing and significance analysis are performed by Graphpad. P<0.05 and P<0.01 indicate significant difference and extremely significant difference in data. The target peak area in the polypeptide metabolism data is calculated by using TargetLynx software, and an allowable error of retention time is 15 s. The calculation of concentration is based on a standard curve method to obtain quantitative results.

Take `CC(C)C[C@H](NC(=O)[C@@H]1CCCN1C(=O)[C@H](CC(C)C)NC(=O)[C@@H](N)CC(N)=O)C(=O)O` [NLPL] (H-NLPL-OH; N-terminus and C-terminus assumed): the “time at which NLPL content in the blood reaches a maximum” value was no more than 45 min. Under “rat, blood, po, during the measurement time (to 360 min)”, the AUC (commonly the area under the concentration-time curve, a measure of exposure) is 7.14 ng·h/mL. Where the note is “rat, blood, po, read-out: maximum NLPL content in the blood”, the Cmax was 1.65 ± 1.75 ng/mL.
